Assay [1] concerns immobility in forced swim test. The assay is described as follows: Forced Swim Test (FST) in mice. The assay is classed as in vivo. An excerpt:
(§1) The forced swim test (FST) also known at the behavioural despair test was used to evaluate antidepressant activity (Porsolt et al., 1977 Arch. Int. Pharmacodyn. 229: 327-336, Porsolt et al., 1977, Eur. J. Pharmacol. 47:379-391). Mice or rats that are forced to swim in a situation from which they cannot escape, rapidly become immobile. Drugs with antidepressant activity, such as imipramine, reduce the amount of time spent in the immobile state. Therefore, the amount of immobility time during a test conducted after drug administration represents a useful indicator of antidepressant activity (Lucki et al 2001 Psychopharmacology 155:315-322; Porsolt et al., 1977, Nature 266:730-732).
(§2) Test compound E1-8.2 was administered as the free base.
Mice were evaluated in a single swimming test session of 6 minutes. Mice were placed in a transparent plastic cylinder 24 cm high with a diameter of 13 cm containing 10 cm of water with ambient temperature control generally from 22±2° C. Mice were placed in the water for 6 minutes and the duration of immobility during the last 4 minutes was measured.
Animals were observed by a blinded observer. The observer judged the animal to be immobile when it ceased all activity (struggling, swimming, jumping etc.) and floated passively atop the water. The amount of time each animal spent in the immobile state (and the latency to the first bout of immobility) was recorded and used for statistical analysis of compound effect. Group differences were evaluated by student's t-test (reference substance) or one-way ANOVA followed by post-hoc Dunnett's test (test substances). […]
Male mice (strain NLMN) weighing 25-35 g were used for testing. […] The mice were videotaped for 6 minutes, and the last 4 minutes of video were analyzed by a blinded observer off-line. […] The amount of time each animal spent in the immobile state was recorded and used for statistical analysis of compound effect. Group differences were evaluated by student's t-test or one-way ANOVA followed by post-hoc Dunnett's test. […]

The test system of assay [2] is immobility in forced swim test. The assay is described as follows: Forced Swim Test (FST) in rats. The assay is classed as in vivo.
From the text: as §1, §2
Male Wistar rats weighing 197-251 g were used for the rat test. Rats were evaluated according to a two-session procedure with a swimming session of 15 minutes on the first day of the experiment (Session 1) followed 24 hours later by a 5-minute swimming test (Session 2). […] Rats were placed in the water 24 h later for 5 minutes (Session 2) and the duration of immobility was measured.
Animals were observed by a blinded observer. […] The amount of time each animal spent in the immobile state (and the latency to the first bout of immobility) was recorded and used for statistical analysis of compound effect. […]

The target of a further assay is NR2B (Homo sapiens (Human), UniProt Q05586+Q13224). Conditions: cited from earlier work.

The structures appear in SMILES notation.

Chain of NR2B (Q13224 27-1484, species assumed, other chains not shown): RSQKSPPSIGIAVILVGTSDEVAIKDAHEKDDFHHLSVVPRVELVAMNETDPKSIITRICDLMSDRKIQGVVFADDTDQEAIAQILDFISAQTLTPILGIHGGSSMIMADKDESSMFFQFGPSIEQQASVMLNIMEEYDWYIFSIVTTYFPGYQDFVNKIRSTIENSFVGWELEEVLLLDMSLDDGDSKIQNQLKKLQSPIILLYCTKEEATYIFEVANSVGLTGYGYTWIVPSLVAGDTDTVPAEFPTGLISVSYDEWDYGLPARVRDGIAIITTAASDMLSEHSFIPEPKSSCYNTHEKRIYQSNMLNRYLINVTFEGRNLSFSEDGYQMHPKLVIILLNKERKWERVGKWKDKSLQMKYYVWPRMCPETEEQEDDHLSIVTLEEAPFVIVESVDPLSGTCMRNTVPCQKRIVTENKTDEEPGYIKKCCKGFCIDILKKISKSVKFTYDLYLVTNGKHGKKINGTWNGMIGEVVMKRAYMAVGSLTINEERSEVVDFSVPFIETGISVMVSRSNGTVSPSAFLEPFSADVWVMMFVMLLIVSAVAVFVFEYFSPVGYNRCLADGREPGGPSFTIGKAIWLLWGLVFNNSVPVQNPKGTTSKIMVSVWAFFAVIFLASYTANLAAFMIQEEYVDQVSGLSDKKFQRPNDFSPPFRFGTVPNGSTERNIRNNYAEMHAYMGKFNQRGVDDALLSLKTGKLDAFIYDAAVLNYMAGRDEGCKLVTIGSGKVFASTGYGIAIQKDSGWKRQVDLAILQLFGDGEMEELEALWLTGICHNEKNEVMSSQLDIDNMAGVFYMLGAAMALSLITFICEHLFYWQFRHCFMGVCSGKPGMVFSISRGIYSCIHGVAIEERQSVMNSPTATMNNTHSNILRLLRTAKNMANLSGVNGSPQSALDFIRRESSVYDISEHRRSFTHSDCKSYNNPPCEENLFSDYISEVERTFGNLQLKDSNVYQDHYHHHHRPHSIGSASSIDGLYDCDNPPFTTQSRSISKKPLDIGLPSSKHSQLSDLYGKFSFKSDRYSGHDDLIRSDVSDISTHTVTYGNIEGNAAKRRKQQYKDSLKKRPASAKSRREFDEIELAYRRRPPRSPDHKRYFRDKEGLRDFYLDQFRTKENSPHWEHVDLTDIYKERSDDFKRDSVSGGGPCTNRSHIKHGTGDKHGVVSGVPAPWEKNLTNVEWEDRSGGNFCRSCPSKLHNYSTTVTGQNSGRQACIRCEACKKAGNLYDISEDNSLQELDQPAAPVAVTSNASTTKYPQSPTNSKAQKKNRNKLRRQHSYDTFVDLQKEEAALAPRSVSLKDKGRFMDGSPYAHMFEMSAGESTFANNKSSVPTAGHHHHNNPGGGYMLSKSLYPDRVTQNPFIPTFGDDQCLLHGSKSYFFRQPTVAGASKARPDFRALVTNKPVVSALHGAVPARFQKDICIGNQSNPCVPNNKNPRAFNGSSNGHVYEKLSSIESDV

Turning to `CN(C)CCCN1c2ccccc2CCc2ccccc21` [imipramine], the “immobility time, antidepressant activity” value is “expected antidepressant activity” in assay [1] (32 mpk i.p. once 30 min before the test); “expected antidepressant activity” in assay [1] (64 mpk p.o. once 60 min before the test); “expected antidepressant activity” in assay [1] (128 mpk p.o. once 60 minutes before the test on Day 7); “expected antidepressant activity” in assay [2] (32 mpk i.p. 3 times: 24 h, 4 h and 30 min before Session 2); “expected antidepressant activity” in assay [2] (64 mpk p.o. 3 times: 24 h, 4 h and 60 min before Session 2).

As for `Cc1ccc(COC(=O)N2CCC(CNc3ncccn3)C(F)C2)cc1` (single isomer, unassigned) [3R,4S enantiomer], on NR2B, the “potency against NR2B” value is recorded as 25.5 nM.
